Where two headings read alike, the source gives them in different places. *1 amine or outer side, *2 acyl side, *3 side chain or, on linkers, in order; H or OH if unused. Where a SMILES comes first, the peptide text is derived from it. Side-chain parts run from the residue outwards. [ ]: non-standard residue; d: D form. The star is where a group is joined. C20 diacid = O=C(O)CCCCCCCCCCCCCCCCCCC(=O)*; C18 diacid = O=C(O)CCCCCCCCCCCCCCCCC(=O)*; γGlu = O=C(O)[C@H](CCC(=O)[*:2])N[*:1]; AEEA = NCCOCCOCC(=O)O; Aib = CC(C)(N)C(=O)O
Key:
[1] = Pharmacokinetics of selected compounds in mice; format: in vivo, C57BL/6J mice; conditions: male, C57BL/6J, mouse, plasma; for bioavailability: subcutaneous, AUCinf (s.c.)/AUCinf (i.v.)x100, values marked * capped to 100%
Protocol: Pharmacokinetics of Selected Compounds in Mice
C57BL/6J mice (males with a body weight of approximately 25 g) were given either a single subcutaneous (s.c.) bolus or a single intravenous (i.v.) bolus of each peptide to be tested.
Following s.c. administration of the selected compounds (50, 100 or 200 nmol/kg), blood samples were drawn at 8 (eight) timepoints up to 72 hours post-dose. Following i.v. administration of the selected compounds (50, 100 or 200 nmol/kg), blood samples were drawn at 8 (eight) timepoints up to 48 hours post-dose. Blood samples were drawn by sublingual bleeding. The dosing vehicle was a phosphate buffer containing mannitol (pH 7.5).
At each sampling time point, samples from two mice were drawn, i.e. 16 mice were included for each compound and each administration route. The mice were euthanized immediately after blood sampling by cervical dislocation. Plasma samples were analyzed after solid phase extraction (SPE) or protein precipitation followed by liquid chromatography mass spectrometry (LC-MS/MS). Mean plasma concentrations were used for calculation of the pharmacokinetic parameters using the non-compartmental approach in Phoenix WinNonlin 6.3. Plasma terminal elimination half-life (T½) was determined as […] where λz is the magnitude of the slope of the log linear regression of the log concentration versus time profile during the terminal phase. Bioavailability was determined as AUCinf (s.c.)/AUCinf (i.v.)×100, where AUCinf is the area under the plasma concentration−time curve extrapolated to infinity (AUCinf=AUClast+Clast/λz, where Clast is the last observed plasma concentration). Tmax is the post-dose time where the maximal plasma concentration was observed.

human GIP R = target: T1, human GIP R (Homo sapiens, UniProt P48546); experiment: Human GIP receptor (GIP R) activity assay, cAMP induction (AlphaScreen) in HEK293 cells; format: cell-based; conditions: read-out: hGIP-R cAMP EC50 average value
T1 construct: expressed in transfected cells
T1 sequence (P48546 22-466): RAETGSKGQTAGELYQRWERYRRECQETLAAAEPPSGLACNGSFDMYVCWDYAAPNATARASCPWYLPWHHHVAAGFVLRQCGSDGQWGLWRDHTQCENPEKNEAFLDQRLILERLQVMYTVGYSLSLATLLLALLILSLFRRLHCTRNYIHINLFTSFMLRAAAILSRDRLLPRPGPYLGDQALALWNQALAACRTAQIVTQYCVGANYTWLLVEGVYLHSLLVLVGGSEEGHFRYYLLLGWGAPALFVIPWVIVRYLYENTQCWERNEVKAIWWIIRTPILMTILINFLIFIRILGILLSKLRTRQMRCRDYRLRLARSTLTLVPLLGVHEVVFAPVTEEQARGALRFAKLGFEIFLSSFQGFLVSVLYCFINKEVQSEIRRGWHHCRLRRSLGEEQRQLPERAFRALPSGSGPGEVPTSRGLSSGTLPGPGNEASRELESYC
How it was run: (§1)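 Stable HEK293 clones expressing human GIP R or GLP-1 R, seeded 1 day before; cells washed in Tyrode's buffer (10 mM HEPES, pH 7.4), stimulated, then lysed. cAMP measured by AlphaScreen bead competition (1 h, room temperature, dark). EC50 = concentration giving half-maximal cAMP elevation, from curves of absolute cAMP (nM) vs log concentration.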

human GLP-1 R = target: T2, human GLP-1 R (Homo sapiens, UniProt P43220); experiment: Human GLP-1 receptor (GLP-1 R) activity assay, cAMP induction (AlphaScreen) in HEK293 cells; format: cell-based
T2 construct: expressed in transfected cells
T2 sequence (P43220 24-463): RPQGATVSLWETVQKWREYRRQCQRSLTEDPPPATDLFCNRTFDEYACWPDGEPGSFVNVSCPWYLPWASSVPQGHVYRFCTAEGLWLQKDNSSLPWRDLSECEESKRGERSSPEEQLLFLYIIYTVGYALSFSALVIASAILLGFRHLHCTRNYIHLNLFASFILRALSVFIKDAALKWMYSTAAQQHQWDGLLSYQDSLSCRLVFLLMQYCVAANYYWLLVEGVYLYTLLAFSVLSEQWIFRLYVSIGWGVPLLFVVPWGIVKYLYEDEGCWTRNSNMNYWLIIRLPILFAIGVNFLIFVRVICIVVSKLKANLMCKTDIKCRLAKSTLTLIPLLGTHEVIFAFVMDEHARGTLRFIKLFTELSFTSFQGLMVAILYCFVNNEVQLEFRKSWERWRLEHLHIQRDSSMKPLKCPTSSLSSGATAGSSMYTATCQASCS
How it was run: as §1

[2] = iv, single i.v. bolus, read-out: T½ terminal elimination half-life, i.v. (converted)
[3] = Table 2, HEK293 cells expressing human GIP R
[4] = Table 3, most comprehensive data
[5] = Table 2, HEK293 cells expressing human GLP-1 R, read-out: hGLP1-R cAMP EC50 average value
[6] = Table 3, most comprehensive data, read-out: hGLP-1-R cAMP EC50 average value
[7] = sc, single s.c. bolus, read-out: T½ terminal elimination half-life, s.c. (converted)

| SMILES | half-life [1, 2] [h] | bioavailability [1] [%] | Tmax ([1]; sc, single s.c. bolus) [h] | EC50 (human GIP R; [3]) [nM] | EC50 (human GIP R; [4]) [nM] | EC50 (human GLP-1 R; [5]) [nM] | EC50 (human GLP-1 R; [6]) [nM] | half-life [1, 7] [h] |
| --- | --- | --- | --- | --- | --- | --- | --- | --- |
| CC[C@H](C)[C@H](NC(=O)[C@H](CO)NC(=O)[C@H](Cc1ccc(O)cc1)NC(=O)[C@H](CC(=O)O)NC(=O)[C@H](CO)NC(=O)[C@@H](NC(=O)[C@H](Cc1ccccc1)NC(=O)[C@@H](NC(=O)CNC(=O)[C@H](CCC(=O)O)NC(=O)C(C)(C)NC(=O)[C@@H](N)Cc1ccc(O)cc1)[C@@H](C)O)[C@@H](C)O)C(=O)N[C@@H](C)C(=O)N[C@@H](CC(C)C)C(=O)N[C@@H](CC(=O)O)C(=O)N[C@@H](CCCCN)C(=O)N[C@@H](CCCCNC(=O)COCCOCCNC(=O)COCCOCCNC(=O)CC[C@H](NC(=O)CCCCCCCCCCCCCCCCCCC(=O)O)C(=O)O)C(=O)N[C@@H](C)C(=O)N[C@@H](CCC(N)=O)C(=O)N[C@@H](CCCNC(=N)N)C(=O)N[C@@H](C)C(=O)N[C@@H](Cc1ccccc1)C(=O)N[C@H](C(=O)N[C@@H](CC(N)=O)C(=O)N[C@@H](Cc1c[nH]c2ccccc12)C(=O)N[C@@H](CC(C)C)C(=O)N[C@H](C(=O)N[C@@H](C)C(=O)NC(C)(C)C(=O)N[C@@H](CCCCN)C(=O)N1CCC[C@H]1C(=O)N[C@@H](CO)C(=O)N[C@@H](CO)C(=O)NCC(=O)N[C@@H](C)C(=O)N1CCC[C@H]1C(=O)N1CCC[C@H]1C(=O)N1CCC[C@H]1C(=O)N[C@@H](CO)C(N)=O)C(C)C)C(C)C [Compound 15] | 17.3 | 95 | 8 | 0.008 | 0.008 | 0.0088 | 0.009 |  |
| CC[C@H](C)[C@H](NC(=O)[C@H](CO)NC(=O)[C@H](Cc1ccc(O)cc1)NC(=O)[C@H](CC(=O)O)NC(=O)[C@H](CO)NC(=O)[C@@H](NC(=O)[C@H](Cc1ccccc1)NC(=O)[C@@H](NC(=O)CNC(=O)[C@H](CCC(=O)O)NC(=O)C(C)(C)NC(=O)[C@@H](N)Cc1ccc(O)cc1)[C@@H](C)O)[C@@H](C)O)C(=O)N[C@@H](C)C(=O)N[C@@H](CC(C)C)C(=O)N[C@@H](CCC(=O)O)C(=O)N[C@@H](CCCCN)C(=O)N[C@@H](CCCCNC(=O)COCCOCCNC(=O)COCCOCCNC(=O)CC[C@H](NC(=O)CCCCCCCCCCCCCCCCC(=O)O)C(=O)O)C(=O)N[C@@H](C)C(=O)N[C@@H](CCC(N)=O)C(=O)N[C@@H](CCCNC(=N)N)C(=O)N[C@@H](C)C(=O)N[C@@H](Cc1ccccc1)C(=O)N[C@H](C(=O)N[C@@H](CCC(=O)O)C(=O)N[C@@H](Cc1c[nH]c2ccccc12)C(=O)N[C@@H](CC(C)C)C(=O)N[C@@H](CC(C)C)C(=O)N[C@@H](C)C(=O)N[C@@H](CCC(N)=O)C(=O)N[C@@H](CCCCN)C(N)=O)C(C)C [Compound 16] (H-Y[Aib]EGTFTSDYSIALEKK([AEEA-AEEA-γGlu-C18 diacid])AQRAFVEWLLAQK-NH2) | 7.4 | 50 | 6 | 0.0081 | 0.008 | 0.015 |  |  |
| CC[C@H](C)[C@H](NC(=O)[C@H](CO)NC(=O)[C@H](CC(C)C)NC(=O)[C@H](CC(=O)O)NC(=O)[C@H](CO)NC(=O)[C@@H](NC(=O)[C@H](Cc1ccccc1)NC(=O)[C@@H](NC(=O)CNC(=O)[C@H](CCC(=O)O)NC(=O)C(C)(C)NC(=O)[C@@H](N)Cc1ccc(O)cc1)[C@@H](C)O)[C@@H](C)O)C(=O)N[C@@H](C)C(=O)N[C@@H](CC(C)C)C(=O)N[C@@H](CCC(=O)O)C(=O)N[C@@H](CCCCN)C(=O)N[C@@H](CCCCNC(=O)COCCOCCNC(=O)COCCOCCNC(=O)CC[C@H](NC(=O)CCCCCCCCCCCCCCCCCCC(=O)O)C(=O)O)C(=O)N[C@@H](C)C(=O)N[C@@H](CCC(N)=O)C(=O)N[C@@H](CCCNC(=N)N)C(=O)N[C@@H](C)C(=O)N[C@@H](Cc1ccccc1)C(=O)N[C@H](C(=O)N[C@@H](CCC(=O)O)C(=O)N[C@@H](Cc1c[nH]c2ccccc12)C(=O)N[C@@H](CC(C)C)C(=O)N[C@@H](CC(C)C)C(=O)N[C@@H](C)C(=O)N[C@@H](CCC(N)=O)C(=O)N[C@@H](CCCCN)C(N)=O)C(C)C [Compound 28] (H-Y[Aib]EGTFTSDLSIALEKK([AEEA-AEEA-γGlu-C20 diacid])AQRAFVEWLLAQK-NH2) | 13.6 | 93 | 2 | 0.024 |  | 0.017 | 0.015 | 14.1 |
| CC[C@H](C)[C@H](NC(=O)[C@H](CO)NC(=O)[C@H](Cc1ccc(O)cc1)NC(=O)[C@H](CC(=O)O)NC(=O)[C@H](CO)NC(=O)[C@@H](NC(=O)[C@H](Cc1ccccc1)NC(=O)[C@@H](NC(=O)CNC(=O)[C@H](CCC(=O)O)NC(=O)[C@@H](C)NC(=O)[C@@H](N)Cc1ccc(O)cc1)[C@@H](C)O)[C@@H](C)O)C(=O)N[C@@H](Cc1ccc(O)cc1)C(=O)N[C@@H](CC(C)C)C(=O)N[C@@H](CC(=O)O)C(=O)N[C@@H](CCCCN)C(=O)N[C@@H](CCCCNC(=O)COCCOCCNC(=O)COCCOCCNC(=O)CC[C@H](NC(=O)CCCCCCCCCCCCCCCCCCC(=O)O)C(=O)O)C(=O)N[C@@H](C)C(=O)N[C@@H](CCC(N)=O)C(=O)N[C@@H](CCCNC(=N)N)C(=O)N[C@@H](C)C(=O)N[C@@H](Cc1ccccc1)C(=O)N[C@H](C(=O)N[C@@H](CCC(=O)O)C(=O)N[C@@H](Cc1c[nH]c2ccccc12)C(=O)N[C@@H](CC(C)C)C(=O)N[C@@H](CC(C)C)C(=O)N[C@@H](C)C(=O)N[C@@H](CCC(N)=O)C(=O)NCC(=O)N1CCC[C@H]1C(=O)N[C@@H](CO)C(=O)N[C@@H](CO)C(=O)NCC(=O)N[C@@H](C)C(=O)N1CCC[C@H]1C(=O)N1CCC[C@H]1C(=O)N1CCC[C@H]1C(=O)N[C@@H](CO)C(N)=O)C(C)C [Compound 30] (H-Y[dA]EGTFTSDYSIYLDKK([AEEA-AEEA-γGlu-C20 diacid])AQRAFVEWLLAQGPSSGAPPPS-NH2) | 17.1 | 83 | 8 | 0.015 | 0.017 | 0.028 | 0.035 | 15.9 |
| CC[C@H](C)[C@H](NC(=O)[C@H](CO)NC(=O)[C@H](Cc1ccc(O)cc1)NC(=O)[C@H](CC(=O)O)NC(=O)[C@H](CO)NC(=O)[C@@H](NC(=O)[C@H](Cc1ccccc1)NC(=O)[C@@H](NC(=O)CNC(=O)[C@H](CCC(=O)O)NC(=O)C(C)(C)NC(=O)[C@@H](N)Cc1ccc(O)cc1)[C@@H](C)O)[C@@H](C)O)C(=O)N[C@@H](C)C(=O)N[C@@H](CC(C)C)C(=O)N[C@@H](CCC(=O)O)C(=O)N[C@@H](CCCCN)C(=O)N[C@@H](CCCCNC(=O)COCCOCCNC(=O)COCCOCCNC(=O)CC[C@H](NC(=O)CCCCCCCCCCCCCCCCCCC(=O)O)C(=O)O)C(=O)N[C@@H](C)C(=O)N[C@@H](CCC(N)=O)C(=O)N[C@@H](CCCNC(=N)N)C(=O)N[C@@H](C)C(=O)N[C@@H](Cc1ccccc1)C(=O)N[C@H](C(=O)N[C@@H](CCC(=O)O)C(=O)N[C@@H](Cc1c[nH]c2ccccc12)C(=O)N[C@@H](CC(C)C)C(=O)N[C@@H](CC(C)C)C(=O)N[C@@H](C)C(=O)N[C@@H](CCC(N)=O)C(=O)NCC(=O)N1CCC[C@H]1C(=O)N[C@@H](CO)C(=O)N[C@@H](CO)C(=O)NCC(=O)N[C@@H](C)C(=O)N1CCC[C@H]1C(=O)N1CCC[C@H]1C(=O)N1CCC[C@H]1C(=O)N[C@@H](CO)C(N)=O)C(C)C [Compound 31] (H-Y[Aib]EGTFTSDYSIALEKK([AEEA-AEEA-γGlu-C20 diacid])AQRAFVEWLLAQGPSSGAPPPS-NH2) | 11.7 | 88 | 8 | 0.007 | 0.008 | 0.016 | 0.017 | 15.1 |

— patent publication US10093713B2, “GIP-GLP-1 dual agonist compounds and methods” (priority 2013, dated 2018)
